Source: patent publication US4733003A, “Octahydronaphthalene derivatives and their preparation” (Sankyo Company Limited, priority 1981, dated 1988)

The molecules below were run on cholesterol biosynthesis (assay: inhibition of cholesterol biosynthesis (method of J. Biol. Chem. 234, 2835 (1959))). Details: method of Journal of Biological Chemistry, 234, 2835 (1959).
Type: biochemical
Text: The compounds of the invention in which R^1 and R^2 both represent oxygen atoms are, as already described, valuable intermediates for the synthesis of the active compounds. The inhibitory activities of certain of the compounds of the invention, in terms of the concentration in ng/ml required to inhibit colesterol biosynthesis by 50% [measured by the method described in the Journal of Biological Chemistry, 234, 2835 (1959)], are as follows (for comparison, the value for ML-236B lactone is also given): […]

Structure (SMILES) | concentration required to inhibit colesterol biosynthesis by 50% [ng/mL]
CCC(C)C(=O)OC1CCC(=NO)C2=CC(=NO)C(C)C(CCC3CC(O)CC(=O)O3)C21 (single isomer, unassigned) [isomer a (Example 3), 3,4-Dihydro-4,6-bis(hydroxyimino)IsoML-236B lactone] | 4.5
CCC(C)C(=O)OC1CCC(=NO)C2=CC(=NO)C(C)C(CCC3CC(O)CC(=O)O3)C21 (single isomer, unassigned) [isomer b (Example 3), 3,4-Dihydro-4,6-bis(hydroxyimino)IsoML-236B lactone] | 4.3
CC1C(=O)C=C2C(=NO)CCC(O)C2C1CCC1CC(O)CC(=O)O1 (centres unmarked) [3,4-Dihydro-6-oxo-4-hydroxyiminoIsoML-236A lactone] | 0.9
CCC(C)C(=O)OC1CCC(=NO)C2=CC(=O)C(C)C(CCC3CC(O)CC(=O)O3)C21 (centres unmarked) [3,4-Dihydro-6-oxo-4-hydroxyiminoIsoML-236B lactone] | 0.3
CCC(C)C(=O)OC1CCC(=NOC)C2=CC(=O)C(C)C(CCC3CC(O)CC(=O)O3)C21 (centres unmarked) [3,4-Dihydro-6-oxo-4-methoxyiminoIsoML-236B lactone] | 0.6
CCC(C)C(=O)OC1CCC=C2C=CC(C)C(CCC3CC(O)CC(=O)O3)C21 (centres unmarked) [ML-236B lactone, reference compound] | 10
CCC(C)C(=O)OC1CCC(=NO)C2=CC(=O)C(C)C(CCC(O)CC(O)CC(=O)O)C21 (centres unmarked) [disodium 3,4-dihydro-6-oxo-4-oxidoiminoIsoML-236B carboxylat] [Disodium 3,4-dihydro-6-oxo-4-oxidoiminoIsoML-236B carboxylate] | 0.4
CCC(C)C(=O)OC1CCC(=NO)C2=CC(=O)C(C)C(CCC(O)CC(O)CC(=O)O)C21 (centres unmarked) [sodium 3,4-dihydro-6-oxo-4-hydroxyiminoIsoML-236B carboxylat] [Sodium 3,4-dihydro-6-oxo-4-hydroxyiminoIsoML-236B carboxylate] | 0.3
